Laboratory results as given in publication PMC10709409, “Cryo-EM structures of human organic anion transporting polypeptide OATP1B1” (Cell Research, 2023).

Assays:
[1] = target: T1, OATP1B1 (Homo sapiens, UniProt Q9Y6L6); parameters: gene SLCO1B1
T1 sequence (Q9Y6L6 1-691): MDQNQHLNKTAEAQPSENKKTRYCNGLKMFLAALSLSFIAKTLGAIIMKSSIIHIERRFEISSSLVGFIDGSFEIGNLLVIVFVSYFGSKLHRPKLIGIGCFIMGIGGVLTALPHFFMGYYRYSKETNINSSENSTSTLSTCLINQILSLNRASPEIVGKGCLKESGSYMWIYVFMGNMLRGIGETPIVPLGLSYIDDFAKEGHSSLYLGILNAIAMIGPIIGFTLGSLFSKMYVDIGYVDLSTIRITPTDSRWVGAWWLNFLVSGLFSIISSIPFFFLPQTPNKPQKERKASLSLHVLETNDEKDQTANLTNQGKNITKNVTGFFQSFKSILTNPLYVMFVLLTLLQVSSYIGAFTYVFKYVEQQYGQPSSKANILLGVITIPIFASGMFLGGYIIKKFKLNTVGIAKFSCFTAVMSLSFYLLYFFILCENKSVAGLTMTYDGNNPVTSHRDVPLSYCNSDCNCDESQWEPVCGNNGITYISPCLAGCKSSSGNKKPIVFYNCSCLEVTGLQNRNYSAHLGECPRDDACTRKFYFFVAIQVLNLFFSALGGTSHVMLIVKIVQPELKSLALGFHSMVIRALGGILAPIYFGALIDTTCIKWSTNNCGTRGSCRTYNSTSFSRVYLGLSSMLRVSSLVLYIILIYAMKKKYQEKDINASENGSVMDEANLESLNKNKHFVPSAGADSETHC

[2] = target: T1, OATP1B1; assay: cryo-EM structure (outward-open, […] Å); also cell DCF uptake assay; format: binding; parameters: gene SLCO1B1; human OATP1B1 with C-terminal tandem His and Flag tags
[3] = target: T1, OATP1B1; assay: cryo-EM structure (inward-open, […] Å); also [3H]-E3S proteoliposome counterflow and DCF uptake inhibition; format: binding; parameters: gene SLCO1B1; human OATP1B1 with C-terminal tandem His and Flag tags

Row | SMILES | cryo-EM structure (outward-open, 3.73 Å); also DCF uptake inhibition in HEK293T [1] | further results
1 | C=CC1=C(C)/C(=C/c2[nH]c(Cc3[nH]c(/C=C4\NC(=O)C(C)=C4C=C)c(C)c3CCC(=O)O)c(CCC(=O)O)c2C)NC1=O [B, bilirubin] | Bilirubin and simeprevir occupy the major pocket located in the central cavity, while DCF binds to the minor pocket | –
2 | O=C1OC2(c3cc(Cl)c(O)cc3Oc3cc(O)c(Cl)cc32)c2ccccc21 [D, 2′,7′-dichlorofluorescein] | – | cryo-EM structure (outward-open, 2.92 Å); also cell DCF uptake assay [2]: DCF extends towards a minor hydrophilic pocket within the interior of the CTD by forming hydrogen-bond interactions with N544 and S548
3 | C[C@]12CC[C@H]3c4ccc(OS(=O)(=O)O)cc4CC[C@@H]3[C@@H]1CCC2=O [E, estrone-3-sulfate] | – | cryo-EM structure (inward-open, 3.2 Å); also [3H]-E3S proteoliposome counterflow [3]: The EM density of E3S in OATP1B1–Ein is unambiguously resolved, allowing us to discern the pose of the E3S
4 | COc1ccc2c(O[C@@H]3C[C@H]4C(=O)N[C@]5(C(=O)NS(=O)(=O)C6CC6)C[C@H]5/C=C\CCCCN(C)C(=O)[C@@H]4C3)cc(-c3nc(C(C)C)cs3)nc2c1C [S, simeprevir] | Bilirubin and simeprevir occupy the major pocket located in the central cavity, while DCF binds to the minor pocket | –
